Drawing on patent US20240327412A1, “FACTOR XIIA INHIBITORS” (KALVISTA PHARMACEUTICALS LIMITED, priority 2021, published 2024), this text covers IC50 for twelve compounds.

The target of one assay is T1, Plasma Kallikrein (Homo sapiens, UniProt P03952).
T1 construct: FXIIa converts plasma prekallikrein (PK) to plasma kallikrein (PKa)
Description: Related protease inhibition: Plasma Kallikrein (fluorogenic substrate at Km). The class given is biochemical. Particulars: class symbols per Table 18, read-out: IC50 (human PKal). As to the method:
In vitro inhibition of related proteases was determined using an IC50 assay based on standard literature methods (see e.g. Shori et al., Biochem. Pharmacol., 1992, 43, 1209; Bouckaert et al., European Journal of Medicinal Chemistry 110 (2016) 181). Human serine protease enzyme Plasma Kallikrein, KLK1, FXa, Plasmin, Thrombin and Trypsin were assayed for enzymatic activity using an appropriate fluorogenic substrate at Km concentration, FXIa at fixed substrate concentration of 100 μM and various concentrations of the test compound. Protease activity was measured by monitoring the accumulation of liberated fluorescence from the substrate over 5 min at 25° C. The linear rate of fluorescence increase per minute was expressed as percentage (%) activity. IC50 values were calculated as the concentration of inhibitor giving 50% inhibition of the uninhibited enzyme activity (100%).

Another assay has as its target T2, Human Factor XIIa (Homo sapiens, UniProt P00748).
T2 construct: Proteolytic cleavage of FXII to heavy and light chains of FXIIa dramatically increases catalytic activity; purchased Enzyme Research Laboratories
T2 sequence (P00748 373-615 limits assumed): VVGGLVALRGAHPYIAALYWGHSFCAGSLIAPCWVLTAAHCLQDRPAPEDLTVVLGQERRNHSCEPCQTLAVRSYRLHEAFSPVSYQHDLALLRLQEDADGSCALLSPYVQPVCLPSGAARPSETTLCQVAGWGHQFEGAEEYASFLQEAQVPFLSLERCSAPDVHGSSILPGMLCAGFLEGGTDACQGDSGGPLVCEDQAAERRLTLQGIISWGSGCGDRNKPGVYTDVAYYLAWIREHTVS
T2 sequence (P00748 20-372 partner limits assumed): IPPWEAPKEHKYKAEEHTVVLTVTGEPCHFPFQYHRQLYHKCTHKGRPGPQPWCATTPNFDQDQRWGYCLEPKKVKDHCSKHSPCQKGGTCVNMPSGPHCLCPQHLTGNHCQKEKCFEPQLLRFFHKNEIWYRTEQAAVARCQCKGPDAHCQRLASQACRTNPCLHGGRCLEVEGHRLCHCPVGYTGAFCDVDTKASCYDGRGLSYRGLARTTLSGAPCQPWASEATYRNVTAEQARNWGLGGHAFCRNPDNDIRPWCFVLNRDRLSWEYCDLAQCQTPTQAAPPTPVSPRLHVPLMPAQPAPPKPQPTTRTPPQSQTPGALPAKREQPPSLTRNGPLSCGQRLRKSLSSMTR
Description: Determination of FXIIa inhibition (fluorogenic substrate H-DPro-Phe-Arg-AFC, IC50 assay). Particulars: substrate at Km concentration, 25° C.; category scale; read-out: Human FXII IC50 (nm). The format is biochemical. The gist of the method: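 Human FXIIa incubated at 25° C. with fluorogenic H-DPro-Phe-Arg-AFC at its Km concentration plus varying compound levels. Linear fluorescence increase over 5 min taken as % activity; IC50 is concentration halving uninhibited activity.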

pIC50: −log10 of the molar value.

T1 sequence (P03952 391-638 limits assumed): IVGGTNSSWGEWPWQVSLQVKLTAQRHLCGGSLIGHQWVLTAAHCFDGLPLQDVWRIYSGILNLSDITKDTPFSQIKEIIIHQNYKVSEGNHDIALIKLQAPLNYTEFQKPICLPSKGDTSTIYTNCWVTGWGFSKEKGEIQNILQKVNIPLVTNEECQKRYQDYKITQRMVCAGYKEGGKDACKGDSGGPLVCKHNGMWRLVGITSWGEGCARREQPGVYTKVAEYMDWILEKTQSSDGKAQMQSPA
T1 sequence (P03952 20-390 partner limits assumed): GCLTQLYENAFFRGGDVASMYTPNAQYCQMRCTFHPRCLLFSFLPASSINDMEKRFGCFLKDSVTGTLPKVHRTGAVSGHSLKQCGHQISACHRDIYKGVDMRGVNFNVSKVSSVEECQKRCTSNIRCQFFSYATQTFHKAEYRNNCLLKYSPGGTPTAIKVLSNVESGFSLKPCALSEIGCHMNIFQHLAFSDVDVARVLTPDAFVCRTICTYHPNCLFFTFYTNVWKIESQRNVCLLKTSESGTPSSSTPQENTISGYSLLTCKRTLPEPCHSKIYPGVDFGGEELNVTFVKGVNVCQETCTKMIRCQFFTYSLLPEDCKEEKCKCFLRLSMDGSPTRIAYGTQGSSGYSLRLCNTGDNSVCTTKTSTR

On to `Nc1nccc2c(CCC34CC(COc5ccn6ccnc6c5)(C3)C4)cccc12` [Example 1014, 5-[2-[3-(Imidazo[1,2-a]pyridin-7-yloxymethyl)-1-bicyclo[1.1.1]pentanyl]ethyl]isoquinolin-1-amine], for which the figures for the negative-log IC50 (pIC50) on Plasma Kallikrein and at Human Factor XIIa were under 4.40 and 5.52 to 6.00, respectively.

For the compound `Nc1nccc2c(OCC34CC(C(=O)N5CCn6ccnc6C5)(C3)C4)cccc12` [Example 1015, [3-[(1-aminoisoquinolin-5-yl)oxymethyl]-1-bicyclo[1.1.1]pentanyl]-(6,8-dihydro-5H-imidazo [1,2-a]pyrazin-7-yl)methanone], the negative-log IC50 (pIC50) at Plasma Kallikrein was under 4.40; at Human Factor XIIa, 4.40 to 5.00.

Consider `Nc1nccc2c(NCC34CC(COc5cccn6ccnc56)(C3)C4)cccc12` [Example 1018, 5-N-[[3-(Imidazo[1,2-a]pyridin-8-yloxymethyl)-1-bicyclo[1.1.1]pentanyl]methyl]isoquinoline-1,5-diamine], for which the negative-log IC50 (pIC50) on Plasma Kallikrein is under 4.40; at Human Factor XIIa, 6.00 to 6.52.

Consider `Nc1nccc2c(NCC34CC(COc5ccc6c(c5)NC(=O)C6)(C3)C4)cccc12` [Example 1113, 6-((3-(((1-aminoisoquinolin-5-yl)amino)methyl)bicyclo[1.1.1]pentan-1-yl)methoxy)indolin-2-one], for which the negative-log IC50 (pIC50) at Plasma Kallikrein is under 4.40; on Human Factor XIIa it was 5.52 to 6.00.

On to `Nc1nccc2c(NCC34CC(COc5ccc6cn[nH]c6c5)(C3)C4)cccc12` [Example 1125, N5-((3-(((1H-indazol-6-yl)oxy)methyl)bicyclo[1.1.1]pentan-1-yl)methyl)isoquinoline-1,5-diamine], for which the negative-log IC50 (pIC50) on Plasma Kallikrein is under 4.40; on Human Factor XIIa, 4.40 to 5.00.

For the compound `Nc1nccc2c(NCC34CC(Cn5ccn6ccc(=O)cc56)(C3)C4)cccc12` [Example 1127, 1-((3-(((1-aminoisoquinolin-5-yl)amino)methyl)bicyclo[1.1.1]pentan-1-yl)methyl)imidazo[1,2-a]pyridin-7(1H)-one], the pIC50 at Plasma Kallikrein is under 4.40; at Human Factor XIIa it was 5.00 to 5.52.

For the compound `Clc1cc2c(NCC34CC(COC5CCn6ccnc6C5)(C3)C4)ccnc2[nH]1` (stereo not drawn) [Example 1130, 2-Chloro-N-[[3-(5,6,7,8-tetrahydroimidazo[1,2-a]pyridin-7-yloxymethyl)-1-bicyclo[1.1.1]pentanyl]methyl]-1H-pyrrolo[2,3-b]pyridin-4-amine], the negative logarithm of the IC50 (pIC50) on Plasma Kallikrein is under 4.40; at Human Factor XIIa it was 6.00 to 6.52.

Take `Nc1nccc2c(NC34CC(COc5ccc6nccn6c5)(C3)C4)cccc12` [Example 1131, N5-(3-((imidazo[1,2-a]pyridin-6-yloxy)methyl)bicyclo[1.1.1]pentan-1-yl)isoquinoline-1,5-diamine]: the negative logarithm of the IC50 (pIC50) at Plasma Kallikrein was under 4.40; at Human Factor XIIa, 4.40 to 5.00.

With `Nc1nccc2c(NCC34COC(COc5ccn6c(C(F)(F)F)nnc6c5)(C3)C4)cccc12` [Example 2206, N5-((1-(((3-(trifluoromethyl)-[1,2,4]triazolo[4,3-a]pyridin-7-yl)oxy)methyl)-2-oxabicyclo[2.1.1]hexan-4-yl)methyl)isoquinoline-1,5-diamine], the pIC50 on Plasma Kallikrein was under 4.40; on Human Factor XIIa, 5.52 to 6.00.

As to `Nc1nccc2c(NCC34COC(COc5ccn6ncnc6c5)(C3)C4)cccc12` [Example 2207, N5-((1-(([1,2,4]triazolo[1,5-a]pyridin-7-yloxy)methyl)-2-oxabicyclo[2.1.1]hexan-4-yl)methyl)isoquinoline-1,5-diamine], the pIC50 at Plasma Kallikrein is under 4.40; on Human Factor XIIa, 5.52 to 6.00.

As to `N#Cc1cnc(OCC23CC(CNc4cccc5c(N)nccc45)(CO2)C3)nc1` [Example 2208, 2-((4-(((1-aminoisoquinolin-5-yl)amino)methyl)-2-oxabicyclo[2.1.1]hexan-1-yl)methoxy)pyrimidine-5-carbonitrile], the results for the negative logarithm of the IC50 (pIC50) at Plasma Kallikrein and at Human Factor XIIa were under 4.40 and 5.00 to 5.52, respectively.

On to `Nc1nccc2c(NCC34COC(COc5ccc6ncnn6c5)(C3)C4)cccc12` [Example 2210, N5-((1-(([1,2,4]triazolo[1,5-a]pyridin-6-yloxy)methyl)-2-oxabicyclo[2.1.1]hexan-4-yl)methyl)isoquinoline-1,5-diamine], for which the pIC50 at Plasma Kallikrein is under 4.40; at Human Factor XIIa it was 5.52 to 6.00.
